Source: ChEMBL document CHEMBL1275340, “BACE1 inhibitory activities of enantiomerically pure, variously substituted N-(3-(4-benzhydrylpiperazin-1-yl)-2-hydroxypropyl) arylsulfonamides” (Bioorg Med Chem, 2010)

Target: Beta-secretase 1 (Homo sapiens, UniProt P56817)
Assay: Inhibition of BACE1 by fluorescence assay

Beta-secretase 1, sequence (P56817 whole entry): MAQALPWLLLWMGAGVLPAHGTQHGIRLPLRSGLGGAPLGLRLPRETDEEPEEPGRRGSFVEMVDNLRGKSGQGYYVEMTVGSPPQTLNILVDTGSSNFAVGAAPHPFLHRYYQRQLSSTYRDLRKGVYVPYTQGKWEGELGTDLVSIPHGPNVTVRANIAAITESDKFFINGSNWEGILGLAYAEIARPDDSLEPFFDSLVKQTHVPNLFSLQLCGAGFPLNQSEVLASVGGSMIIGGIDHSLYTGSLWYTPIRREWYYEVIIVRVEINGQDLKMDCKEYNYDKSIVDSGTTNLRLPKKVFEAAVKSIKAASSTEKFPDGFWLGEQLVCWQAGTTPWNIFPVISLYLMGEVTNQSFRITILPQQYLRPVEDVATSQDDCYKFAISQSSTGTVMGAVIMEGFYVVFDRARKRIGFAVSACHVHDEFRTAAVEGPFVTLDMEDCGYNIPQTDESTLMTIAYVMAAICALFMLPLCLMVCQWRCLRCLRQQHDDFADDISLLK

Q: `O=S(=O)(c1ccc(Cl)cc1)N(CCc1ccccc1)C[C@@H](O)CN1CCN(C(c2ccccc2)c2ccccc2)CC1` was tested. Which IC50 did it give?
A: 1.9 µM

Q: How did the IC50 turn out when `O=S(=O)(c1ccc(Cl)cc1)N(Cc1ccccc1)C[C@@H](O)CN1CCN(C(c2ccccc2)c2ccccc2)CC1` was run?
A: 5.4 µM

Q: `O=S(=O)(c1ccc(Cl)cc1)N(CCc1ccccc1)C[C@H](O)CN1CCN(C(c2ccccc2)c2ccccc2)CC1` was tested. Which IC50 did it give?
A: 2.3 µM

Q: With `O=S(=O)(c1ccccc1)N(CCc1ccccc1)C[C@H](O)CN1CCN(C(c2ccccc2)c2ccccc2)CC1` as the molecule, how does the IC50 read?
A: 5.1 µM

Q: For `O=S(=O)(c1ccc(Cl)c(Cl)c1)N(CC1CC1)C[C@@H](O)CN1CCN(C(c2ccccc2)c2ccccc2)CC1`, which IC50 is on record?
A: 4.7 µM

Q: How did the IC50 turn out when `O=S(=O)(c1ccccc1)N(CCc1ccccc1)C[C@@H](O)CN1CCN(C(c2ccccc2)c2ccccc2)CC1` was run?
A: 6.9 µM

Q: Which IC50 does the source give for `O=S(=O)(c1ccc(Cl)c(Cl)c1)N(CC1CC1)C[C@H](O)CN1CCN(C(c2ccccc2)c2ccccc2)CC1` here?
A: 5.4 µM

Q: `O=S(=O)(c1ccc(Cl)cc1)N(Cc1ccccc1)C[C@H](O)CN1CCN(C(c2ccccc2)c2ccccc2)CC1` was tested. Which IC50 did it give?
A: 6.3 µM
